Data as given in patent US20060263346A1, “Combined pharmaceutical preparations for the treatment of cancer, containing glutaminase and antineoplastic anthracyclines or platinum compounds” (priority 2003, published 2006).

Tests used:
Type in all cases: cell-based
colon tumor (HT29) cells = assay: Sulforhodamine in vitro cell growth test, colon tumor cells HT29; details: 2 μg/ml cis-platinum alone, 48 h
Procedure: (§1) Cell lines from tumors of the breast (MCF7), lung (NCI-H460, A549), colon (SW-60, HT29) and CNS (SF-539) were used for the test. The tumor cells were cultured in RPMI 1640 medium containing 7.5% foetal calf serum at 37° C. and 5% CO2. After the cells had grown for 24 hours, they were incubated with the substances to be tested for 48 hours.
(§2) The antineoplastic agents used for the experiments were obtained from Sigma in cell culture quality.
(§3) A Pseudomonas 7A glutaminase-asparaginase modified with polyethylene glycol (DE 41 40 003 A1, WO 94/13817 A1 and WO 02/31498 A2) was used as the glutaminase.
(§4) After a 48 hour incubation period cell growth was determined by means of the absorption of the bound sulforhodamine dye at 575 nm. The percentage growth was calculated as follows: [formula] in which PW denotes percentage growth, C denotes untreated control cells, T denotes the amount of treated cells and the indices 0 and t denote the amount of cells at time 0 and after 48 hours.

lung tumor (A549) cells = assay: Sulforhodamine in vitro cell growth test, lung tumor cells A549; details: 48 h
Procedure: as §1, §2, §3, §4

[1] = tested on: breast tumor (MCF7) cells; assay: Sulforhodamine in vitro cell growth test, breast tumor cells MCF7; details: 48 h
Procedure: as §1, §2, §3, §4

[2] = tested on: lung tumor (NCI-H23) cells; assay: Sulforhodamine in vitro cell growth test, lung tumor cells NCI-H23; details: 48 h
Procedure: as §1, §2, §3, §4

Compound: N.N.[Cl][Pt][Cl] [Cis-platinum, cis-platinum]
- tumor cell growth (colon tumor (HT29) cells): 65%
- tumor cell growth (lung tumor (A549) cells; 2 μg/ml cis-platinum alone): 41%
- tumor cell growth ([1]; 2 μg/ml cis-platinum alone): 86%

Compound: COc1cc([C@@H]2c3cc4c(cc3[C@@H](O[C@@H]3O[C@@H]5CO[C@@H](C)O[C@H]5[C@H](O)[C@H]3O)[C@H]3COC(=O)[C@H]23)OCO4)cc(OC)c1O [Etoposide, etoposide]
- growth compared to the control ([2]; 2.3 μg/ml etoposide alone): about 40%
- growth compared to the control (lung tumor (A549) cells; 2.3 μg/ml etoposide alone): about 40%
- growth compared to the control ([1]; 2.3 μg/ml etoposide alone): about 40%

Compound: N[C@@H](Cc1ccc(N(CCCl)CCCl)cc1)C(=O)O [Melphalan, melphalan]
- tumor growth ([2]; 68 μg/ml melphalan alone): 34%

Compound: CO[C@@]12[C@H](COC(N)=O)C3=C(C(=O)C(C)=C(N)C3=O)N1C[C@@H]1N[C@@H]12 [Mitomycin, mitomycin]
- growth compared to the control ([1]; 0.026 μg/ml mitomycin alone): 66%
